Measurements: US9278086B2, “Combination therapy and uses thereof for treatment and prevention of parasitic infection and disease” (The Royal Institution for the Advancement of …, priority 2010, dated 2016)

Key:
Assay type in all cases: in vivo
[1] = test system: Plasmodium chabaudi; test: 4-day test, P. chabaudi (10^7 pRBC i.v.) in pantetheinase-deficient A/J mice, blood parasitemia days 4 and 5; details: A/J mice
Procedure: (§1) A/J and C57BL/6 (B6) mice were purchased from the Jackson Laboratories (Bar Harbor, Me.) and were housed at McGill University according to the guidelines of the Canadian Council on Animal Care. An LDH virus-free isolate of P. chabaudi AS was maintained by weekly passage in A/J mice. Mice were infected intravenously into the tail vein (i.v.) with 10^6 or 10^7 pRBC suspended in pyrogen-free saline. Following infection, the percentage of pRBC was determined daily on thin blood smears stained with Dif-Quik™ (Dade Behring, Newark, Del.), as described (Fortin A, et al. (2001) Proc Natl Acad Sci USA 98: 10793-10798).
(§2) Cysteamine hydrochloride (Sigma, Burlington ON) was prepared in PBS. Chloroquine hydrochloride, artesunate and dihydroartemisinin were provided by Dafra Pharmaceuticals; chloroquine was prepared in PBS, artesunate and DHA were prepared in 5% sodium bicarbonate and diluted in water to appropriate concentrations. All solutions were prepared fresh daily, filter sterilized and injections were performed intra-peritoneally (i.p) or subcutaneously (s.c.) for 4 days or according to treatment regimen. Mice were weighed prior to treatment to determine appropriate doses and injection volumes ranged from 100-400 μL per mouse. In the case of animals treated with two drugs, artemisinin derivatives were administered first (due to the short half life of cysteamine), followed by cysteamine 5-10 minutes later on alternate sides. Untreated control animals were injected with PBS alone.
(§3) Groups with normally distributed data points were compared using parametric unpaired t-tests, while groups with non-Gaussian distributions were compared using non-parametric Mann-Whitney tests. Survival differences were analyzed using the Log-Rank test. […] Standard error of percent inhibition was calculated from individual mice compared to the mean parasitemia level of the control group.
(§4) The effect of Cys on the potency and efficacy of the anti-malarial artemisinin derivatives was tested. […] Synergy (Tallarida R J (2001) J Pharmacol Exp Ther 298: 865-872) is defined as a total anti-malarial activity (reduction in blood parasitemia compared to untreated controls in a standard 4-day test) of the two compounds administered together being greater than the sum of the independent activities of the two compounds given alone. We tested combinations of Cys and either artesunate (ART) or dihydroartemisinin (DHA), the bioactive form of artemisinin. Pantetheinase-deficient mice were infected with P. chabaudi (10^7 pRBC, i.v.) and treated with Cys (170 mg/kg) and/or sub-optimal doses of ART (0.2 or 0.5 mg/kg) (FIG. 3A) or DHA (0.15 or 0.3 mg/kg) (FIG. 3B) from day 0-3 and parasitemia was monitored on days 4 and 5. […] Potentiation of the anti-malarial activity of ART (0.5 mg/kg) by Cys was also clearly evident in these C57BL/6 mice at both days 4 and 5 post-infection, with combined treatment causing a 65-71% reduction in parasitemia compared to PBS controls, greater than either compound tested alone (13-29%) (TABLE 1).
It was subsequently examined whether Cys potentiation of ART was dose dependent. Initially, Cys doses of 60, 100, 140 and 180 mg/kg were tested with a sub-optimal ART dose of 0.2 mg/kg. The drugs were administered from day 0-3 post infection, parasitemia was counted at day 4 and day 5 and the percent inhibition was calculated compared to PBS-treated controls (FIG. 4A). At 0.2 mg/kg, ART alone inhibits parasitemia by ˜20% (day 4) and 40% (day 5) while inhibition by Cys alone was partially dose dependent (varying between 10% and 25%). […] It was also assessed whether Cys could potentiate low doses of artesunate which, given alone, have no significant effect on parasitemia. In this experiment, Cys (170 mg/kg) was administered in combination, or not, with increasing doses of ART (0.05, 0.1, 0.2, 0.4 mg/kg) in the same 4-day experimental protocol.

[2] = test system: Plasmodium chabaudi; test: 4-day test, P. chabaudi (10^7 pRBC i.v.) in pantetheinase-sufficient C57BL/6 mice, blood parasitemia days 4 and 5; details: cysteamine 170 mg/kg i.p. alone, days 0-3
Procedure: as §1, §2, §3, §4

[3] = test system: Plasmodium chabaudi; test: Progression of P. chabaudi infection (10^6 pRBC i.v.) in pantetheinase-sufficient B6 mice; details: Cys 60 mg/kg added to Art
Procedure: as §1, §2
To investigate whether the effects on parasite burden over the course of infection would also be observed with a pantetheinase-sufficient mouse strain, a similar experiment was performed using female B6 mice. Groups of mice were infected with 10^6 P. chabaudi pRBC i.v. and treated with PBS, 1 mg/kg or 30 mg/kg of Art, or 1 mg/kg or 30 mg/kg of Art plus 60 mg/kg of Cys for 4 days. […] As in A/J mice, the effect of Cys addition to 1 mg/kg of Art has a clear effect on early parasite replication at day 6 (FIG. 6B). […] B6 mice were able to completely clear parasite burdens and survive the infection, even in the control PBS-treated group.

[4] = test system: Plasmodium berghei ANKA; test: Plasmodium berghei ANKA infection (cerebral malaria model) in C57BL/6J mice, parasitemia and survival; details: Cysteamine alone
Procedure: FIGS. 8A and 8B show the results of two independent experiments on the effect of cysteamine and artesunate combinations on the progression of Plasmodium berghei ANKA infection (parasitemia). Groups of 5 adult 18-20 g C57BL/6J males and females were infected intravenously with 1×10^6 erythrocytes parasitized with P. berghei ANKA at time “0”. Two hours later, mice were injected i.p with either Artemisinin alone or with Artemisinin/Cysteamine combinations (at the indicated concentrations in mg/kg body weight). In the case of the latter, Artemisinin was injected first in one quadrant, and cysteamine was injected second, 10-15 minutes later in another quadrant. The drug treatment was further repeated at days 1, 2 and 3 post-infection to emulate the standard 4-day test used in anti-malarial drug discovery. Starting at day 5, blood was collected, thin blood smears were prepared, and parasitemia was determined (400 erythrocytes counted, expressed as percentage parasitized erythrocytes). Error bars show standard deviations on the mean; and
FIGS. 9A and 9B show the results of two independent experiments on the effect of cysteamine and artesunate combinations on the survival of Plasmodium berghei ANKA-infected mice. Infection and drug administration were performed as described above for FIGS. 8A and 8B. Animals were monitored for the appearance and severity of cerebral symptoms (CM phase, shown as rectangle in graph), and moribund animals were euthanized, and time of death was recorded.
Intravenous infection with Plasmodium berghei ANKA is an accepted mouse model of cerebral malaria (CM) (Hunt, N. H. et al. 2006, Int. J. Parasitol. 36: 569-582). The infection causes the following pathology. First, there is appearance of blood parasitemia, starting at days 3 or 4, which can go up to 10% by day 7-8. Starting at day 5-6, there is emergence of cerebral symptoms caused by permeability of the blood brain barrier, concomitant to trapping of parasitized red cells in the microvasculature and acute pathological host inflammatory response in situ. This cerebral phase quickly progresses from tremors, to paralysis, to coma, and is uniformly lethal in mice by days 8-10. In this model, progress of infection and possibly drug effects may be monitored by a) appearance and intensity of blood parasitemia (between days 5-8), b) appearance of cerebral symptoms, and c) lethality.

[5] = cysteamine 170 mg/kg i.p. alone, days 0-3

SMILES: NCCS [Cysteamine]
- Inhibition of parasitemia Day 4 [1, 5]: 28 % PBS control
- Inhibition of parasitemia Day 5 [1, 5]: 23 % PBS control
- Cys doses as low as which show potentiation of the ART effect ([1]; lower Cys dose range (20, 40 and 60 mg/kg) with ART (FIG. 4B)): 20 to 40 mg/kg
- Inhibition of parasitemia Day 4 [2]: 13 % PBS control
- Inhibition of parasitemia Day 5 [2]: 25 % PBS control
- recrudescent parasitemia around day 14 [3]: eliminated the appearance of recrudescent parasitemia
- effect on survival of P. berghei-infected animals [4]: minor positive effect on survival
